Measured values from US20120107246A1, “METHOTREXATE-MODIFIED NANOPARTICLES AND RELATED METHODS” (WASHINGTON, UNIVERSITY OF, priority 2005, published 2012).

Legend:
9L cells = test: leucovorin rescue of 9L cells exposed to free methotrexate; type: cell-based, rat
Description: Methotrexate induces apoptosis in cells through inhibition of the folic acid cycle by acting on the enzyme, dihydrofolate reductase (DHFR). The substitution of a […] at position four of the pteridine ring transforms the molecule from a substrate of DHFR to a tight binder. […] Leucovorin (folinic acid) is commonly used in high dose chemotherapy to rescue the folic acid cycle in healthy cells and reduce the deleterious side effect of the therapy. Leucovorin rescues the cell cycle by being actively metabolized into reduced folates, increasing the intracellular concentration of the reduced folates within the cytoplasm. […] Previous studies used leucovorin to rescue MCF-7 and HeLa cells following exposure to free methotrexate, but no studies have been reported in using leucovorin for the 9L cell line. Thus, the first step in this study was to determine whether the 9L cells would respond to leucovorin induced rescue following the cellular exposure to free methotrexate.

HeLa cells = test: cell viability (surviving fraction) by cell count; settings: up to 120 hours in culture, nanoparticles 0.01-0.1 mg/mL iron, soluble methotrexate 2 μg/mL
Description: Human breast cancer cells (MCF-7), and human cervical cancer cells (HeLa) were obtained from the Fred Hutchinson Cancer Research Center, Seattle, Wash. Cells were grown in T-75 flasks with RPMI Media (Invitrogen) supplemented with 10% fetal calf serum, 5958 mg/mL HEPES, 300 mg/mL L-Glutamine, 50 ug/mL streptomycin and 50 IU/mL penicillin. Cells were cultured at 37° C. in a humidified atmosphere with 5% CO2 with the medium being changed every third day. The cells were transferred to RPMI-1640 folate free medium (Invitrogen) 24 hours prior to plating. The cells were then subcultured in 24-well plates at a concentration of 25,000 cells/mL in RPMI-1640 folate-free medium. […] In addition, a control media containing soluble methotrexate was prepared at a concentration of 2 μg/mL. Cells were also cultured in 1 mL medium without nanoparticles as the control. The cell culture proceeded for 24, 48, 72, 96, and 120 hours respectively at which time, the cells were washed three times with 1 mL of Hank's Balanced Salt Solution (HBSS, Invitrogen), detached with 500 μL of 0.25% trypsin-EDTA (Sigma), and resuspended in 1 mL of Phosphate Buffered Saline (PBS) supplemented with 10% FBS. Cell viability was determined by cell count via a model Z1 Beckman particle counter.

[1] = in humans; cited from earlier work

Row | SMILES | leucovorin concentration at which cells showed continued proliferation (9L cells; 9L cells after 2 hours exposure to methotrexate, 48 hours incubation with LV) [µg/mL] | sufficient concentration of LV to ensure cell rescue (9L cells; 9L cells after methotrexate exposure) [µg/mL] | reduction in cell viability / cytotoxicity (HeLa cells) | half-life [1] [h]
1 | Nc1nc2c(c(=O)[nH]1)N(C=O)C(CNc1ccc(C(=O)N[C@@H](CCC(=O)O)C(=O)O)cc1)CN2 (stereo partly shown) [leucovorin, Leucovorin (folinic acid)] | ≥ 1 | ~10 |  | 
2 | CN(Cc1cnc2nc(N)nc(N)c2n1)c1ccc(C(=O)N[C@@H](CCC(=O)O)C(=O)O)cc1 [methotrexate, Methotrexate] |  |  | slightly higher cytotoxicity | 2 to 3
